What all share (experiment): inhibition of tumour cell growth, NCI panel, 48 h
Test [1] concerns SK-MEL-28 melanoma.
Test [2] deals with U251 CNS.
Test [3] concerns RXF 393 renal.
In test [4] the test system is UACC-257 melanoma.
Test [5] deals with DU-145 prostate.
Test [6] concerns KM12 colon.
The subject of test [7] is NCI-H522 lung.
For test [8], the system named is SN12C renal.
In test [9] the test system is BT-549 breast.
The test system of test [10] is MALME-3M melanoma.

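The compound was tested at five concentrations on cells cultured in 96-well plates, with a 48-hour exposure period. GI50 marks 50% less growth. TGI: concentration producing complete growth inhibition.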

In the case of `OCC(O)C(O)C(O)C1SC(c2ccccc2)=NN1c1ccccc1` (configuration not stated), the TGI in test [1] is above 100 µM; in [2] it was above 100 µM; in test [3], 47.9 µM; in test [4], above 100 µM; in [5] it was above 100 µM; in [6], above 100 µM. For the same compound, the TGI was 75.4 µM in test [7], above 100 µM in test [8], above 100 µM in test [9] and above 100 µM in test [10].

On to `COc1ccccc1C1=C2C(=O)N(C)C(c3ccccc3OC)=C2C(=O)N1C`, for which the TGI in test [1], in test [2], in test [4], in [5], in [6] and in test [7] was above 100 µM in each case. Besides, the TGI in [8], in [9] and in [10] was above 100 µM throughout.

For the compound `C=C(Cl)COC(=O)Nc1cccc(Cl)c1`, the TGI is above 100 µM in [1]; above 100 µM in test [2]; 77.6 µM in test [3]; above 100 µM in [4]; above 100 µM in [5]; above 100 µM in test [6]. Moreover, the TGI in [7] was 83.6 µM; in [8], above 100 µM; in test [9] it was 87.2 µM.

Regarding `COC1/C=C\C=C(/C)C(=O)Nc2cc3nc4ccc(Br)cc4oc-3c(c2=O)CC(C)CC(OC)C(O)C(C)/C=C(\C)C1OC(N)=O` (configuration not stated), the GI50 was 0.000391 µM in test [1]; 0.00321 µM in test [4]; 0.00403 µM in test [5]; 0.00141 µM in test [7]; 10.1 µM in test [9]; 0.00493 µM in [10]. The TGI in test [2] was 28.7 µM; in test [3], 8.61 µM; in [4], 6.93 µM; in test [5], 18 µM; in test [6] it was 13.4 µM; in test [7] it was 0.142 µM. The figures for the TGI in test [8], in test [9] and in test [10] were 6.36 µM, 22.6 µM and 12.6 µM, respectively.

`COc1ccc(C2=NN(C(=O)COc3ccc(Cl)cc3)C(O)(c3cc(F)c(Cl)cc3Cl)C2)cc1OC` (configuration not stated): the GI50 was 1.85 µM in [1]; 5.69 µM in test [2]; 0.474 µM in [3]; 2.74 µM in [4]; 1.25 µM in test [5]; 4.88 µM in test [6]. In addition, the values for the GI50 in test [8], in [9] and in test [10] were 3.65 µM, 2.75 µM and 1.72 µM, respectively. Also, the TGI was 3.5 µM in test [1]; 16.6 µM in [2]; 1.48 µM in [3]; 8.01 µM in test [4]; 3.73 µM in test [5]; 16.2 µM in [6]. In addition, the TGI in test [7] was 2.37 µM; in [8] it was 13.3 µM; in [9], 10.7 µM; in test [10], 3.76 µM.

As to `Cn1ccc2c(NCCN)c3c(c(NCCN)c21)C(=O)c1ccccc1C3=O`, the GI50 in test [1] was 15.6 µM; in test [2], 1.03 µM; in [3] it was 1.5 µM; in test [4], 10.2 µM; in [5] it was 0.453 µM; in [6] it was 0.551 µM. Also, the GI50 in test [7] was 0.498 µM; in [8], 0.465 µM; in [9], 7.62 µM; in [10] it was 3.67 µM. Besides, the TGI is 36.7 µM in test [1]; 9.88 µM in [2]; 3.67 µM in [3]; above 27.7 µM in test [4]; 6.05 µM in [5]; 5.71 µM in [6]. For the same compound, the TGI was 4.92 µM in test [7], 1.61 µM in test [8], 23.7 µM in [9] and 15.2 µM in test [10].

In the case of `COc1cc(NC(=O)c2cc(OC)c3ccn(C)c3c2)cc2c1C[C@]1(C)CC[C@@H](O)C(C)(C)[C@H]1O2`, the GI50 was 5.29 µM in test [1]; 4.05 µM in [2]; 0.759 µM in test [3]; 7.6 µM in test [4]; 9.08 µM in [5]; 9.92 µM in test [6]. In addition, the GI50 in test [7] was 20.6 µM; in test [8], 27.9 µM; in [9] it was 2.98 µM; in test [10], 6.22 µM. Also, the TGI was above 100 µM in test [1]; above 100 µM in test [2]; 4.28 µM in test [3]; above 100 µM in [4]; above 100 µM in [5]; above 100 µM in test [6]. For the same compound, the TGI in test [7] was above 100 µM; in [8] it was above 100 µM; in test [9], above 100 µM; in test [10], 70.5 µM.

In the case of `CC(=O)Nc1nc(SCc2ccccc2)c2ncn(C(C)=O)c2n1`, the GI50 is above 100 µM in test [1]; 88.8 µM in test [2]; 30.9 µM in test [3]; above 100 µM in test [4]; above 100 µM in test [5]; above 100 µM in [6]. The GI50 in test [7] is 72.6 µM; in [8] it was above 100 µM; in test [9], 85.3 µM; in test [10] it was above 100 µM. Besides, the TGI in [1], in test [2], in test [3], in test [4], in [5] and in test [6] was above 100 µM each time. Moreover, the TGI in [7], in [8], in test [9] and in test [10] was above 100 µM each time.

As to `C[C@]12CC[C@H](O)CC1=CC[C@@H]1C2CC[C@]2(C)c3nn(-c4ccc(F)cc4)nc3CC12` (some centres not stated), the TGI in [1], in test [2], in test [3], in [4], in test [5] and in [6] was above 100 µM throughout. In addition, the TGI in [7], in test [8], in test [9] and in [10] was above 100 µM each time.

The values above are taken from PubChem BioAssay (NCI).
